The numbers were not newly measured in US10947168B2, “Solvent systems for dicyandiamide and/or alkyl thiophosphoric triamide and use in agricultural applications” (RHODIA OPERATIONS, priority 2014, dated 2021), which cites them from elsewhere.

`N#CNC(=N)N` [Dicyandiamide]: the solubility in water result is “about 41 g/l”.
